# In patent publication US5556856A, “Phthalazinone derivatives that modulate multi-drug resistance” (Asta Medica Aktiengesellschaft, priority 1992, dated 1996):
# Where two headings read alike, the source gives them in different places.
# Columns and labels:
# [1] = test system: inflammation pain; experiment: Randall-Selitto inflammation pain test (IRS); format: in vivo; details: rat; for Analgesic effect in test model IRS: 10 mg/kg p.o.; for ED50: po, read-out: Analgesic effect in test model IRS, ED50
# Method: (§1) The peripheral analgesic effect was shown in the model of the Writhing Test (IWRAC) and in the model of the Randall-Selitto inflammation pain test (IRS).
# ^b IRS = RandallSelitto inflammation pain test. Data in % refer to a
# dose or 10 mg/kg p.o. (rat). The ED50 values are given in mg/kg.
# [2] = test system: acetic acid induced writhing; experiment: Acetic acid induced Writhing Test (IWRAC); format: in vivo; details: mouse; for Analgesic effect in test model IWRAC: 6 mg/kg p.o.; for ED50: po, read-out: Analgesic effect in test model IWRAC, ED50
# Method: as §1
# ^a IWRAC = Acetic acid induced Writhing Test. Data in % refer to a
# dose of 6 mg/kg p.o. (mouse). The ED50 values are given in mg/kg.
# [3] = test system: right anterior free wall; experiment: Antiarrhythmic properties in rabbit cardiac preparations, right anterior free wall; details: Oryctolagus cuniculus, 1 h, 60 minutes, read-out: Electrical threshold, change in percentage from control
# Method: (§2) The antiarrhythmic effect was tested by the following experimental procedure:
# (§3) Twenty young rabbits of mixed breed and either sex, weighing 1475±75 g (mean±S.E.), were used. The animals were sacrificed by a blow on the head, their heart was isolated and the left atrium, a strip of the anterior free wall of the right ventricle, as well as one of the papillary muscles of the right ventricle were dissected and pinned to the bottom (`non-toxic` rubber) of a thermostated organic bath, containing modified Locke's solution. The composition of the solution was the following: Na^+ 140; K^+ 5.63; Ca^2+ 2.17; glucose 11, HCO3 25; CL 125; total 309 mmol/l, pH 7.4. Continuous stirring and oxygenation of the solution were maintained by the bubbling of a mixture of 95% O2 and 5% CO2. The temperature of the organ bath was kept at 32° C. […] During the experiments the following electro-physiological parameters were determined: electrical threshold, effective refractory period and conduction time. The effective refractory period (i.e. the least interval between two successive electro-mechanical responses) was measured by applying a threefold-threshold test stimulus (1 msec, square waves) delivered from a DISA Multistim at various times following the pacing impulse. Conduction time was measured on an oscilloscope (Tektronis 2230) as a distance (i.e. time) between the artifact of the pacing stimulus and the appearance of the subsequent surface potential recorded via bipolar platinum electrodes. The auxotonically measured contractility (maximum contractile force) was also followed (papillary muscle, left atrium).
# (§4) After a 60 min equilibrium in the control solution, the preparations were exposed to 10 μM of the test substance for a period of 60 min. Except for the effect on the effective refractory periods (determined at the 30th and 60th min only) all the other parameters were measured in every 15th min, i.e. four times in the presence of a given concentration of the compound examined. […]
# [4] = test system: left atrial myocardium; experiment: Antiarrhythmic properties in rabbit cardiac preparations, left atrial myocardium; details: Oryctolagus cuniculus, 1 h, 60 minutes; for activation at 10 µM: left atrial myocardium; for inhibition at 10 µM: left auricle, read-out: Contractility, change in percentage from control
# Method: as §2
# (§5) Twenty young rabbits of mixed breed and either sex, weighing 1475±75 g (mean±S.E.), were used. The animals were sacrificed by a blow on the head, their heart was isolated and the left atrium, a strip of the anterior free wall of the right ventricle, as well as one of the papillary muscles of the right ventricle were dissected and pinned to the bottom (`non-toxic` rubber) of a thermostated organic bath, containing modified Locke's solution. The composition of the solution was the following: Na^+ 140; K^+ 5.63; Ca^2+ 2.17; glucose 11, HCO3 25; CL 125; total 309 mmol/l, pH 7.4. Continuous stirring and oxygenation of the solution were maintained by the bubbling of a mixture of 95% O2 and 5% CO2. The temperature of the organ bath was kept at 32° C. The isolated left atrium, papillary muscle and the strip prepared from the anterior free wall of the right ventricle were electrically paced by rectangular electric impulses of 1 msec duration, twice-threshold intensity and a 100 per min frequency. During the experiments the following electro-physiological parameters were determined: electrical threshold, effective refractory period and conduction time. The effective refractory period (i.e. the least interval between two successive electro-mechanical responses) was measured by applying a threefold-threshold test stimulus (1 msec, square waves) delivered from a DISA Multistim at various times following the pacing impulse. Conduction time was measured on an oscilloscope (Tektronis 2230) as a distance (i.e. time) between the artifact of the pacing stimulus and the appearance of the subsequent surface potential recorded via bipolar platinum electrodes. The auxotonically measured contractility (maximum contractile force) was also followed (papillary muscle, left atrium).
# (§6) After a 60 min equilibrium in the control solution, the preparations were exposed to 10 μM of the test substance for a period of 60 min. Except for the effect on the effective refractory periods (determined at the 30th and 60th min only) all the other parameters were measured in every 15th min, i.e. four times in the presence of a given concentration of the compound examined.
# (§7) The values given in the Tables and Figures are means ±S.E. The effect of compounds on the various parameters was estimated statistically by the t-test (Student-Welch); P values<0.05 were regarded as significant.
# (§8) Antiarrhythmic properties in rabbit cardiac
# (§9) incubation time with drugs 60 minutes
# (§10) change in percentage from control
# [5] = test system: right anteior papillary muscle; experiment: Antiarrhythmic properties in rabbit cardiac preparations, right anterior papillary muscle (conduction time); details: Oryctolagus cuniculus, 1 h, 60 minutes, read-out: Conduction time, change in percentage from control
# Method: as §2, §3, §4
# [6] = test system: right ventricular papillary muscle; experiment: Antiarrhythmic properties in rabbit cardiac preparations, right ventricular papillary muscle; details: Oryctolagus cuniculus, 1 h, 60 minutes; for activation at 10 µM: right ventricular papillary muscle; for inhibition at 10 µM: papillary muscle, read-out: Contractility, change in percentage from control
# Method: as §2, §5, §6, §7, §8, §9, §10
# [7] = read-out: Conduction time, change in percentage from control
# [8] = read-out: Effective refractory period, change in percentage from control
# [9] = read-out: Electrical threshold, change in percentage from control
smiles,measurement,setting,value
CCOC(=O)CCN1CCC(n2nc(Cc3ccc(Cl)cc3)c3ccccc3c2=O)CC1,Analgesic effect in test model IRS,[1],50%
same,Analgesic effect in test model IWRAC,[2],67%
O=c1c2ccccc2c(Cc2ccc(F)cc2)nn1C1CCCN(CCc2ccccc2)CC1 (centres unmarked),Analgesic effect in test model IRS,[1],54%
same,ED50,[2],2.7 mg/kg
O=c1c2ccccc2c(Cc2ccco2)nn1C1CCCN(CCc2ccccc2)CC1 (centres unmarked),Analgesic effect in test model IRS,[1],40%
O=c1c2ccccc2c(Cc2ccc(F)cc2)nn1C1CCN(CCCc2ccc(F)cc2)CC1,Analgesic effect in test model IRS,[1],52%
same,Analgesic effect in test model IWRAC,[2],67%
CN1CCCC(n2nc(Cc3ccc(Cl)cc3)c3ccccc3c2=O)CC1 (centres unmarked) [Azelastine],activation at 10 µM,[3],29%
same,activation at 10 µM,[4]; [7],40%
same,activation at 10 µM,[4]; [8],12%
same,activation at 10 µM,[4]; [9],25%
same,activation at 10 µM,[5],50%
same,activation at 10 µM,[6]; [8],9%
same,activation at 10 µM,[6]; [9],22%
O=c1c2ccccc2c(Cc2ccccc2Cl)nn1C1CCCN(CCc2ccccc2)CC1 (centres unmarked),ED50,[1],4.7 mg/kg
same,ED50,[2],4.1 mg/kg
CN1[C@@H]2CC[C@H]1C[C@@H](OC(=O)c1c[nH]c3ccccc13)C2 [ICS-205930],activation at 10 µM,[3],51%
same,activation at 10 µM,[4]; [7],57%
same,activation at 10 µM,[4]; [8],26%
same,activation at 10 µM,[4]; [9],51%
same,inhibition at 10 µM,[4],33%
same,activation at 10 µM,[5],111%
same,inhibition at 10 µM,[6],29%
same,activation at 10 µM,[6]; [8],21%
same,activation at 10 µM,[6]; [9],34%
O=c1c2ccccc2c(Cc2ccc(F)cc2)nn1C1CCCN(CCc2ccccc2)CC1 (racemic) [D-18024],activation at 10 µM,[3],-1%
same,activation at 10 µM,[4]; [7],91%
same,activation at 10 µM,[4]; [8],66%
same,activation at 10 µM,[4]; [9],12%
same,inhibition at 10 µM,[4],39%
same,activation at 10 µM,[5],103%
same,inhibition at 10 µM,[6],48%
same,activation at 10 µM,[6]; [8],7%
same,activation at 10 µM,[6]; [9],29%
O=c1c2ccccc2c(Cc2ccc(F)cc2)nn1C1CCN(CCCc2ccccc2)CC1,Analgesic effect in test model IRS,[1],67%
same,Analgesic effect in test model IWRAC,[2],77%
O=c1c2ccccc2c(Cc2ccccc2)nn1C1CN2CCC1CC2 (centres unmarked) [Phenyl 3-Chinuclidyl],ED50,[1],1.5 mg/kg
same,ED50,[2],3 mg/kg
O=c1c2ccccc2c(Cc2ccc(F)cc2)nn1C1CCCN(Cc2ccccc2)CC1 (centres unmarked),Analgesic effect in test model IRS,[1],53%
same,Analgesic effect in test model IWRAC,[2],75%
O=c1c2ccccc2c(Cc2ccc(F)cc2)nn1C1CN2CCC1CC2 (centres unmarked) [4-F-Phenyl 3-Chinuclidyl],ED50,[1],1.5 mg/kg
same,ED50,[2],4.6 mg/kg
O=c1c2ccccc2c(Cc2ccc(Cl)cc2)nn1C1CCCN(CCc2ccccc2)CC1 (centres unmarked),Analgesic effect in test model IRS,[1],77%
same,Analgesic effect in test model IWRAC,[2],91%
